From publication PMC10002963, “[4+2]-Cycloaddition to 5-Methylidene-Hydantoins and 5-Methylidene-2-Thiohydantoins in the Synthesis of Spiro-2-Chalcogenimidazolones” (International Journal of Molecular Sciences, 2023)
Values after ≈ are worked out from the molar mass of the structure shown. Where two headings read alike, the source gives them in different places.

Columns and labels:
[1] = test system: HEK293T cell line; test: MTT cytotoxicity assay, HEK293T; assay type: cell-based, human
Procedure: (§1) Some of the obtained spiro-derivatives were tested for cytotoxicity using the standard MTT assay. Cytotoxicity was evaluated using the cell lines of various etiologies: breast cancer MCF7, human lung carcinoma A549, non-cancer human embryonic kidney cell line HEK293T, and non-cancer lung fibroblast VA13 cell line. Lung cancers and breast cancers are among the most common causes of tumor lesions and related death in the world, and non-cancerous cells were applied for the specificity of action evaluation. The results are shown in Table 5; the dose-response dependency graphs are available in Supplementary Information.
(§2) Cell cultures. Human embryonic kidney HEK293T cell line was kindly provided by Dr. E. Knyazhanskaya; immortalized human fibroblasts cell line VA13 was kindly provided by Dr. M. Rubtsova; human breast cancer cell line MCF7 and human lung adenocarcinoma cell line A549 were kindly provided by Dr. S. Dmitriev. MCF7, VA13, A549, and HEK293T cell lines were maintained in DMEM/F-12 (Thermo Fisher Scientific, Waltham, Massachusetts, USA) culture medium containing 10% fetal bovine serum (Thermo Fisher Scientific, Waltham, Massachusetts, USA) and 50 µg/mL penicillin and 0.05 mg/mL streptomycin at 37°C (Thermo Fisher Scientific, Waltham, Massachusetts, USA) in 5% CO2. Cells were maintained at 37°C in a humidified incubator MCO-18AC (Sanyo, Japan) supplied with 5% CO2. Cell cultures were tested for the absence of mycoplasma.
(§3) In Vitro Survival Assay (MTT Assay). The cytotoxicity was tested using the MTT (3-(4,5-dimethylthiazol-2-yl)2,5-diphenyl tetrazolium bromide) assay with some modifications. A total of 2500 cells per well for the MCF7, HEK293T cell lines, 3000 cells for the A549 cell line, or 4000 cells per well for the VA-13 cell line were plated out in 135 µL of DMEM-F12 media (Gibco, USA) in a 96-well plate and then incubated in the 5% CO2 incubator for first 20 h without treating. After this, 15 µL of media-DMSO solutions of tested substances were added to the cells (final DMSO concentrations in the media were 0,5% or less) and treated for65 h with 45 nM–100 µM (eight dilutions) of our substances (triplicate each) and doxorubicin as a control substance. Then the MTT reagent (Paneco LLC, Moscow, Russia) was added to cells up to the final concentration of 0.5 g/L (10 × stock solution in PBS was used), and cells were incubated for 2 h at 37 °C under an atmosphere of 5% CO2. Then the MTT solution was discarded, and 140 µL of DMSO (PharmaMed LLC, Russia) was added. The plates were swayed on a shaker (200 rpm) to dissolve the formazan. The absorbance was measured using a microplate reader (VICTOR ×5 Light Plate Reader, PerkinElmer, USA) at a wavelength of 555 nm (in order to measure formazan concentration). The results were used to construct dose-response graphs and to estimate IC50absvalues (IC50abs is the concentration resulting in a two-fold decrease in the number of cells in comparison with the untreated cells) and, in some cases, IC50 values (IC50 is the concentration resulting in half of the maximal cytotoxic effect) with GraphPadSoftware, Inc., San Diego, CA, USA.

[2] = test system: A549 cell line; test: MTT cytotoxicity assay, A549; assay type: cell-based, human
Procedure: as §1, §2, §3

[3] = test system: VA13 cell line; test: MTT cytotoxicity assay, VA13; assay type: cell-based, human
Procedure: as §1, §2, §3

[4] = test system: E. coli K-12 (WT); test: Minimal inhibitory concentration, E. coli K-12; assay type: cell-based, Escherichia coli; conditions: LB medium, overnight 37°C, >1000 = inactive in this test
Procedure: (§4) Then the minimal inhibitory concentration (MIC) was measured for E. coli BW25113 DTC and E. coli K-12 (WT) for the 12 most bacteriotoxic compounds from the plate test.
(§5) Determination of Minimal Inhibitory Concentration (MIC). MIC values were determined by monitoring growth in 96-well plates of E. coli cultures exposed to serial dilutions of compounds. Specifically, overnight E. coli BW25113 DTC and K12 cultures were diluted in 96-well plates to an OD590 of 0.01 in LB medium. The wells were then supplemented with the solution of each tested compound at concentrations of 1 mM, 500 µM, 250 µM, 125 µM, 62.5 µM, 31.25 µM, 15.63 µM, 7.81 µM, 3.91 µM, and 1.95 µM. Then the plates were incubated with shaking (200 r.p.m.) overnight at 37°C, and cell growth was assessed by scanning OD590 each well with a VictorX5 reader.

[5] = test system: E. coli BW25113 DTC; test: Minimal inhibitory concentration, E. coli BW25113 DTC; assay type: cell-based, Escherichia coli
Procedure: as §4, §5

[6] = test system: MCF7 cell line; test: MTT cytotoxicity assay, MCF7; assay type: cell-based, human
Procedure: as §1, §2, §3

[7] = 65-h treatment, Cmax 100 µM, read-out: IC50abs
[8] = A549, 65-h treatment, MTT, Cmax 100 µM, read-out: IC50abs
[9] = VA13, 65-h treatment, MTT, Cmax 100 µM, read-out: IC50abs
[10] = Table S1, read-out: IC50 (concentration resulting in half of the maximal cytotoxic effect)
[11] = A549, MTT, Table S1, read-out: IC50 (concentration resulting in half of the maximal cytotoxic effect)
[12] = E. coli BW25113 DTC, LB medium, overnight 37°C, >1000 = inactive in this test
[13] = MCF7, 65-h treatment, MTT, Cmax 100 µM, read-out: IC50abs
[14] = MCF7, MTT, Table S1, read-out: IC50 (concentration resulting in half of the maximal cytotoxic effect)
[15] = VA13, MTT, Table S1, read-out: IC50 (concentration resulting in half of the maximal cytotoxic effect)
[16] = Homo sapiens, HEK-293T, 65-h treatment, Cmax 100 µM, read-out: IC50abs
[17] = Homo sapiens, A549, 65-h treatment, MTT, Cmax 100 µM, read-out: IC50abs
[18] = Homo sapiens, MCF7, 65-h treatment, MTT, Cmax 100 µM, read-out: IC50abs
[19] = Homo sapiens, VA-13, VA13, 65-h treatment, MTT, Cmax 100 µM, read-out: IC50abs

SMILES	IC50 [1, 7] [µM]	IC50 [2, 8] [µM]	IC50 [3, 9] [µM]	MIC [4] [µM]	MIC [5, 12] [µM]	IC50 [6, 13] [µM]	further results
CC1=C(C)CC2(CC1)NC(=S)N(c1ccccc1F)C2=O (racemic) [Compound 54]	29.6 ± 3	49.5 ± 5	> 100				
CC1=C(C)CC2(CC1)NC(=S)N(c1ccccc1Cl)C2=O (racemic) [Compound 55]	~5	~10	> 100	>1000	>1000	~100	IC50 [1, 10]: 3.1 µM; IC50 [2, 11]: 2.1 µM; IC50 [6, 14]: 1.5 µM; IC50 [3, 15]: 1.9 µM
CC1=C(C)CC2(CC1)NC(=S)N(c1cccc(C)c1)C2=O (racemic) [Compound 56]	22 ± 8	> 100	98.7 ± 17.6				
CC1=C(C)CC2(CC1)NC(=S)N(c1ccc(F)cc1)C2=O (racemic) [Compound 58]	13.7 ± 2.3	23.2 ± 3.5	45 ± 7.5			59 ± 13.3	
COc1ccc(N2C(=O)C3(CCC(C)=C(C)C3)NC2=S)cc1 (racemic) [Compound 60]	10.2 ± 1.3	52.2 ± 5.7	75.3 ± 17	>1000	>1000	98.3 ± 19.8	
CC1=C(C)CC2(CC1)NC(=S)N(c1c(C)cccc1C)C2=O (racemic) [Compound 61]	~4	~10				~100	IC50 [1, 10]: 1.4 µM; IC50 [2, 11]: 4.2 µM; IC50 [6, 14]: 0.9 µM; IC50 [3, 15]: 0.4 µM
O=C1N[C@@]2(C[C@@H]3C=C[C@H]2C3)C(=O)N1c1ccccc1 [Compound 28a]							IC50 [1, 16]: > 100 µM; MIC ([4]; Escherichia coli): > 1000 µM; IC50 [2, 17]: > 100 µM; MIC ([5]; Escherichia coli, BW25113): > 1000 µM; IC50 [6, 18]: > 100 µM; IC50 [3, 19]: > 100 µM
O=C1NC2(CC3C=CC2C3)C(=O)N1c1ccccc1 (centres unmarked) [Compound 28b]	> 100	> 100	> 100	>1000	>1000	> 100	
O=C1N(c2ccccc2)C(=S)NC12CC1C=CC2C1 (centres unmarked) [Compound 34a]							IC50 [1, 16]: 83 ± 3.7 µM; IC50 [2, 17]: > 100 µM; IC50 [6, 18]: > 100 µM; IC50 [3, 19]: > 100 µM
O=C1N(c2ccccc2F)C(=S)NC12CC1C=CC2C1 (centres unmarked) [Compound 35b]	87.4 ± 9.9	> 100	> 100	>1000	1000 (≈ 288 µg/mL)	> 100	
Cc1cccc(N2C(=O)C3(CC4C=CC3C4)NC2=S)c1 (centres unmarked) [Compound 37a]	> 100	> 100	> 100			> 100	
COc1cccc(N2C(=O)C3(CC4C=CC3C4)NC2=S)c1 (centres unmarked) [Compound 38a]		> 100	> 100			> 100	
